Laboratory results: patent publication US20240158446A1, “CYCLIC COMPOUND HAVING SELECTIVE INHIBITORY ACTION ON KRAS OVER HRAS AND NRAS” (CHUGAI SEIYAKU KABUSHIKI KAISHA, priority 2021, published 2024)
pKd: −log10 of the molar value.

Legend:
[1] = biological target: GDP-bound KRAS wild-type protein (Homo sapiens, UniProt P01116); assay: Binding to KRAS by surface plasmon resonance (SPR), Single Cycle Kinetics; settings: SPR Single Cycle Kinetics, GDP-bound KRAS wild-type protein, 1:1 binding model; read-out: KRAS KD
[2] = biological target: GDP-bound NRAS wild-type protein (Homo sapiens, UniProt P01111); assay: Binding to NRAS by surface plasmon resonance (SPR), Single Cycle Kinetics; settings: SPR KD ratio NRAS/KRAS, class symbols
[3] = biological target: GDP-bound HRAS wild-type protein (Homo sapiens, UniProt P01112); assay: Binding to HRAS by surface plasmon resonance (SPR), Single Cycle Kinetics; settings: SPR KD ratio HRAS/KRAS, class symbols
GDP-bound HRAS wild-type protein, sequence (P01112 whole entry): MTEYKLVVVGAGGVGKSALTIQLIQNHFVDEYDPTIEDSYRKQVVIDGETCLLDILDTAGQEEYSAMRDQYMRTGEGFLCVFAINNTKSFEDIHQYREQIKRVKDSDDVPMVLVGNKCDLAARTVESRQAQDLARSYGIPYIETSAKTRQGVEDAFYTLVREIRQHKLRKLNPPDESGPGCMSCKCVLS

GDP-bound KRAS wild-type protein, sequence (P01116 whole entry): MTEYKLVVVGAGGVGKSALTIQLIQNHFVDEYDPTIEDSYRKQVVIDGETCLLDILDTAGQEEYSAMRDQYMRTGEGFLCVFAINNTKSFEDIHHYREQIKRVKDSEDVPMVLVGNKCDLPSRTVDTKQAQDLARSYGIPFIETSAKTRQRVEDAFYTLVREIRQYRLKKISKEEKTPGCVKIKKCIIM
GDP-bound NRAS wild-type protein, sequence (P01111 whole entry): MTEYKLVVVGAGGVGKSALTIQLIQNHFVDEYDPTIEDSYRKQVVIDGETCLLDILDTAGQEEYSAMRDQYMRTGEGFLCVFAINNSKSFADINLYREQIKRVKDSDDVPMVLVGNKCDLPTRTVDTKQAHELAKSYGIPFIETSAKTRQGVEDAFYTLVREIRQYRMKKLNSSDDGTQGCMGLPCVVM

| Compound | pKd [1] | NRAS/KRAS (ratio of KD value with respect to GDP-bound NRAS wild-type protein to KD value with respect to KRAS) [2] | HRAS/KRAS (ratio of KD value with respect to GDP-bound HRAS wild-type protein to KD value with respect to KRAS) [3] |
| --- | --- | --- | --- |
| CCC[C@H]1C(=O)N[C@@H]([C@@H](C)CC)C(=O)N(C)CC(=O)N(C)[C@H]2C/C=C\CCN(C2=O)[C@@H](Cc2ccc(C(F)(F)F)cc2)C(=O)N(C)CC(=O)N[C@@H](CCc2ccc3c(C)c(C)n(C)c3c2)C(=O)N2C[C@H](OCC)C[C@H]2C(=O)NC2(CC(C)(C)C2)C(=O)N(C)[C@@H](C2CCCC2)C(=O)N(C)[C@H](C(=O)N(C)C)CC(=O)N1C [PP2893] | 8.70 | A (a compound having 10 or more and less than 20 is denoted as A) | A (a compound having 10 or more and less than 20 is denoted as A) |
| CCC[C@H]1C(=O)N[C@@H]([C@@H](C)CC)C(=O)N(C)CC(=O)N(C)[C@H]2C/C=C\CCN(C2=O)[C@@H](Cc2ccc(C)cc2)C(=O)N(C)CC(=O)N[C@@H](CCc2ccc3sc(F)c(C)c3c2)C(=O)N2C[C@H](OCC)C[C@H]2C(=O)NC2(CC(C)(C)C2)C(=O)N(C)[C@@H](C(CC)CC)C(=O)N(C)[C@H](C(=O)N(C)C)CC(=O)N1C [PP2894] | 9.51 | AA (a compound having 20 or more is denoted as AA) | A (a compound having 10 or more and less than 20 is denoted as A) |
| CCC[C@H]1C(=O)N[C@@H]([C@@H](C)CC)C(=O)N(C)CC(=O)N(C)[C@H]2C/C=C\CCN(C2=O)[C@@H](Cc2ccc(C)cc2)C(=O)N(C)CC(=O)N[C@@H](CCc2ccc3c(C)c(C)n(C)c3c2)C(=O)N2C[C@H](OCC)C[C@H]2C(=O)NC2(CC(C)(C)C2)C(=O)N(C)[C@@H](C2CCCC2)C(=O)N(C)[C@H](C(=O)N(C)C)CC(=O)N1C [PP2895] | 8.49 | A (a compound having 10 or more and less than 20 is denoted as A) | A (a compound having 10 or more and less than 20 is denoted as A) |
| CCC[C@H]1C(=O)N[C@@H]([C@@H](C)CC)C(=O)N(C)CC(=O)N(C)[C@H]2C/C=C\CCN(C2=O)[C@@H](Cc2ccc(C(F)(F)F)cc2)C(=O)N(C)CC(=O)N[C@@H](CCc2ccc3c(C)cn(C)c3c2)C(=O)N2C[C@H](OCC)C[C@H]2C(=O)NC2(CC(C)(C)C2)C(=O)N(C)[C@@H](C2CCCC2)C(=O)N(C)[C@H](C(=O)N(C)C)CC(=O)N1C [PP2897] | 9.25 | A (a compound having 10 or more and less than 20 is denoted as A) | B (a compound having 3 or more and less than 10 is denoted as B) |
| CCC[C@H]1C(=O)N[C@@H]([C@@H](C)CC)C(=O)N(C)CC(=O)N(C)[C@H]2C/C=C\CCN(C2=O)[C@@H](Cc2ccc(C)cc2)C(=O)N(C)CC(=O)N[C@@H](CCc2cc(Cl)c3c(ccn3C)c2)C(=O)N2C[C@H](OCC)C[C@H]2C(=O)NC2(CC(C)(C)C2)C(=O)N(C)[C@@H](C(CC)CC)C(=O)N(C)[C@H](C(=O)N(C)C)CC(=O)N1C [PP2898] | 8.32 | A (a compound having 10 or more and less than 20 is denoted as A) | A (a compound having 10 or more and less than 20 is denoted as A) |
| CCC[C@H]1C(=O)N[C@@H]([C@@H](C)CC)C(=O)N(C)CC(=O)N(C)[C@H]2C/C=C\CCN(C2=O)[C@@H](Cc2ccc(C)cc2)C(=O)N(C)CC(=O)N[C@@H](CCc2ccc3c(C)cn(C)c3c2)C(=O)N2C[C@H](OCC)C[C@H]2C(=O)NC2(CC(C)(C)C2)C(=O)N(C)[C@@H](C2CCCC2)C(=O)N(C)[C@H](C(=O)N(C)C)CC(=O)N1C [PP2899] | 9.07 | A (a compound having 10 or more and less than 20 is denoted as A) | B (a compound having 3 or more and less than 10 is denoted as B) |
| CCC[C@H]1C(=O)N[C@@H]([C@@H](C)CC)C(=O)N(C)CC(=O)N(C)[C@H]2C/C=C\CCN(C2=O)[C@@H](Cc2ccc(C(F)(F)F)cc2)C(=O)N(C)CC(=O)N[C@@H](CCc2ccc3sc(C)c(C)c3c2)C(=O)N2C[C@H](OCC)C[C@H]2C(=O)NC2(CC(C)(C)C2)C(=O)N(C)[C@@H](C(CC)CC)C(=O)N(C)[C@H](C(=O)N(C)C)CC(=O)N1C [PP2900] | 9.36 | AA (a compound having 20 or more is denoted as AA) | A (a compound having 10 or more and less than 20 is denoted as A) |
| CCC[C@H]1C(=O)N[C@@H]([C@@H](C)CC)C(=O)N(C)CC(=O)N(C)[C@H]2C/C=C\CCN(C2=O)[C@@H](Cc2ccc(C(F)(F)F)cc2)C(=O)N(C)CC(=O)N[C@@H](CCc2ccc3ccn(C)c3c2)C(=O)N2C[C@H](OCC)C[C@H]2C(=O)NC2(CC(C)(C)C2)C(=O)N(C)[C@@H](C2CCCC2)C(=O)N(C)[C@H](C(=O)N(C)C)CC(=O)N1C [PP2901] | 8.51 | A (a compound having 10 or more and less than 20 is denoted as A) | A (a compound having 10 or more and less than 20 is denoted as A) |
| CCC[C@H]1C(=O)N[C@@H]([C@@H](C)CC)C(=O)N(C)CC(=O)N(C)[C@H]2C/C=C\CCN(C2=O)[C@@H](Cc2ccc(C)cc2)C(=O)N(C)CC(=O)N[C@@H](CCc2ccc3sc(C)c(C)c3c2)C(=O)N2C[C@H](OCC)C[C@H]2C(=O)NC2(CC(C)(C)C2)C(=O)N(C)[C@@H](C(CC)CC)C(=O)N(C)[C@H](C(=O)N(C)C)CC(=O)N1C [PP2902] | 9.15 | AA (a compound having 20 or more is denoted as AA) | A (a compound having 10 or more and less than 20 is denoted as A) |
| C#CC[C@H]1C(=O)N[C@@H]([C@@H](C)CC)C(=O)N(C)CC(=O)N(C)[C@H]2C/C=C\CCN(C2=O)[C@@H](Cc2ccc(C(F)(F)F)cc2)C(=O)N(C)CC(=O)N[C@@H](CCc2ccc(C(F)(F)F)c(OC)c2)C(=O)N2CCOC[C@H]2C(=O)NC2(CC(C)(C)C2)C(=O)N(C)[C@@H](C2CCCC2)C(=O)N(C)[C@H](C(=O)N(C)C)CC(=O)N1C [PP2905] | 9.62 | AA (a compound having 20 or more is denoted as AA) | A (a compound having 10 or more and less than 20 is denoted as A) |
| CC[C@H](C)[C@@H]1NC(=O)[C@H](COC)N(C)C(=O)C[C@@H](C(=O)N(C)C)N(C)C(=O)[C@H](C2CCCC2)N(C)C(=O)C2(CC(C)(C)C2)NC(=O)[C@@H]2CCCCN2C(=O)[C@H](CCc2cc(F)c(C(F)(F)F)c(F)c2)NC(=O)CN(C)C(=O)[C@H](Cc2ccc(C(F)(F)F)cc2)N2CC/C=C\C[C@@H](C2=O)N(C)C(=O)CN(C)C1=O [PP2907] | 9.64 | AA (a compound having 20 or more is denoted as AA) | A (a compound having 10 or more and less than 20 is denoted as A) |
| CCC[C@H]1C(=O)N[C@@H]([C@@H](C)CC)C(=O)N(C)CC(=O)N(C)[C@H]2C/C=C\CCN(C2=O)[C@@H](Cc2ccc(C(F)(F)F)cc2)C(=O)N(C)CC(=O)N[C@@H](CCc2ccc3c(C)cn(C)c3c2)C(=O)N2C[C@H](OCC)C[C@H]2C(=O)NC2(CC(C)(C)C2)C(=O)N(C)[C@@H](C(CC)CC)C(=O)N(C)[C@H](C(=O)N(C)C)CC(=O)N1C [PP2908] | 8.82 | AA (a compound having 20 or more is denoted as AA) | A (a compound having 10 or more and less than 20 is denoted as A) |
| C#CC[C@H]1C(=O)N[C@@H]([C@@H](C)CC)C(=O)N(C)CC(=O)N(C)[C@H]2C/C=C\CCN(C2=O)[C@@H](Cc2ccc(C(F)(F)F)cc2)C(=O)N(C)CC(=O)N[C@@H](CCc2ccc(C(F)(F)F)c(OC)c2)C(=O)N2CC[C@H]2C(=O)NC2(CC(C)(C)C2)C(=O)N(C)[C@@H](C2CCCC2)C(=O)N(C)[C@H](C(=O)N(C)C)CC(=O)N1C [PP2909] | 9.00 | B (a compound having 3 or more and less than 10 is denoted as B) | B (a compound having 3 or more and less than 10 is denoted as B) |
| C#CC[C@H]1C(=O)N[C@@H]([C@@H](C)CC)C(=O)N(C)CC(=O)N(C)[C@H]2C/C=C\CCN(C2=O)[C@@H](Cc2ccc(C(F)(F)F)cc2)C(=O)N(C)CC(=O)N[C@@H](CCc2ccc(C(F)(F)F)c(OC)c2)C(=O)N2CC[C@H]2C(=O)NC2(CCC2)C(=O)N(C)[C@@H](C2CCCC2)C(=O)N(C)[C@H](C(=O)N(C)C)CC(=O)N1C [PP2911] | 9.28 | A (a compound having 10 or more and less than 20 is denoted as A) | B (a compound having 3 or more and less than 10 is denoted as B) |
| CCC[C@H]1C(=O)N[C@@H]([C@@H](C)CC)C(=O)N(C)CC(=O)N(C)[C@H]2C/C=C\CCN(C2=O)[C@@H](Cc2ccc(C(F)(F)F)cc2)C(=O)N(C)CC(=O)N[C@@H](CCc2ccc3ccn(C)c3c2)C(=O)N2C[C@H](OCC)C[C@H]2C(=O)NC2(CC(C)(C)C2)C(=O)N(C)[C@@H](C(CC)CC)C(=O)N(C)[C@H](C(=O)N(C)C)CC(=O)N1C [PP2912] | 8.06 | AA (a compound having 20 or more is denoted as AA) | A (a compound having 10 or more and less than 20 is denoted as A) |
